Data taken from patent US20250353873A1, “COMPOUNDS AND METHODS FOR MODULATING APOE EXPRESSION” (Ionis Pharmaceuticals, Inc., priority 2024, published 2025).
Where “and” joins values, the source holds several entries; their conditions need not be identical. Equal values may be shown once. Strand notation (5' to 3'): a small letter for the sugar, then the base; units joined by * are phosphorothioate-linked, units joined directly phosphodiester-linked; [ ] holds rarer units or linkages, { } end groups; capitals alone tell only the bases. [ms] = mesyl phosphoramidate linkage; e = 2'-O-(2-methoxyethyl) (MOE); k = constrained ethyl (cEt); [5mC] = 5-methylcytosine; d = 2'-deoxy (DNA)

What was measured:
human APOE RNA [1] = test: Activity in APOE C57BL/6NTac-Apoeem7250 knock-in mice, single ICV bolus, 4 weeks (Example 10); type: in vivo; settings: single ICV bolus 300 μg, 4 weeks post treatment, normalized to mouse Ppia
Procedure, shortened: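 Knock-in mice (2–4 per group) received one 300 μg ICV bolus of oligonucleotide or PBS. After four weeks, human APOE RNA in cortex and spinal cord measured by RT-qPCR (primer probe set RTS3073), normalized to mouse Ppia, expressed as % of PBS controls.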

human APOE RNA [2] = test: Activity in APOE C57BL/6NTac-Apoeem7250 knock-in mice, single ICV bolus, 20 weeks (Example 13); type: in vivo; settings: single ICV bolus 300 μg, 20 weeks post treatment, normalized to mouse Ppia
Method: Modified oligonucleotides described above were tested in the APOE C57BL/6NTac-Apoeem7250 knock-in mouse model described above.
APOE C57BL/6NTac-Apoeem7250 knock-in mice were divided into groups of 4 mice each. Each mouse received a single ICV bolus of 300 μg of modified oligonucleotide. A group of 2-4 mice received a single ICV bolus with PBS as a negative control.
Twenty weeks post treatment, mice were sacrificed and RNA was extracted from cortical brain tissue and spinal cord for quantitative real-time RT-PCR analysis of RNA expression of APOE using human primer probe set RTS3073 (described herein above). APOE RNA levels were normalized to mouse Ppia. Mouse Ppia was amplified using primer probe set m_cyclo24 (described herein above). Results are presented as percent human APOE RNA relative to the amount of human APOE RNA in PBS treated animals, (% control). Each experiment is identified in separate tables below.

human APOE RNA [3] = test: Dose-dependent inhibition of human APOE RNA in HepG2 cells, electroporation, 50,000 cells per well, RT-PCR normalized to GAPDH (Example 4, Tables 8-10); type: cell-based; settings: HepG2, electroporation, 16-hour treatment
Procedure, shortened: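 HepG2 cells, 50,000 per well, electroporated with modified oligonucleotide at various concentrations. APOE RNA quantified by RT-PCR with human primer probe set RTS3073, normalized to GAPDH. Values are percent APOE RNA relative to untreated control cells.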

human APOE RNA [4] = test: Activity in APOE C57BL/6NTac-Apoeem7250 knock-in mice, single ICV bolus, 16 weeks (Example 12); type: in vivo; settings: cortex; single ICV bolus 300 μg; 16 weeks post treatment; normalized to mouse Ppia
Procedure, shortened: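 Knock-in mice (3-4 per group) received one ICV bolus of 300 μg oligonucleotide, PBS as control. After 16 weeks, human APOE RNA in cortex and spinal cord measured by RT-qPCR, normalized to mouse Ppia, and reported as % of PBS control.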

human APOE RNA [5] = test: Activity in APOE C57BL/6NTac-Apoeem7250 knock-in mice, single ICV bolus, 8 weeks (Example 11); type: in vivo; settings: single ICV bolus 300 μg, 8 weeks post treatment, normalized to mouse Ppia
Procedure, shortened: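 Human APOE knock-in C57BL/6NTac mice given one ICV bolus of 300 μg oligonucleotide; PBS-dosed group as control. At 8 weeks, cortex and spinal cord RNA measured by qRT-PCR (human probe RTS3073), normalized to mouse Ppia, expressed as % of PBS control.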

Substance	APOE RNA (% control) Cortex (human APOE RNA [1])	APOE RNA (% control) Spinal Cord (human APOE RNA [1])	APOE RNA (% control) Cortex (human APOE RNA [2])	APOE RNA (% control) Spinal Cord (human APOE RNA [2])	also measured
1778110: 6-10-4 MOE gapmer ACTTGGTGAATCTTTATTAA, linkages soooosszzsssssszoss (eA*e[5mC]eTeTeGeG*dT*dG[ms]dA[ms]dA*dT*d[5mC]*dT*dT*dT*dA[ms]eTeT*eA*eA) [compound 1778110]	51 % control	51 % control	81 % control	35 % control	
1778108 (eA*e[5mC]eTeTeG*kG*dT*dG[ms]dA[ms]dA*dT*d[5mC]*dT*dT*dT*dA[ms]eT*eT*eA*eA; antisense) [Compound 1778108]	60 % control	41 % control	70 % control	21 % control	
1778107: 6-10-4 MOE gapmer ACTTGGTGAATCTTTATTAA, linkages sooossszzsssssszsss (eA*e[5mC]eTeTeG*eG*dT*dG[ms]dA[ms]dA*dT*d[5mC]*dT*dT*dT*dA[ms]eT*eT*eA*eA) [compound 1778107]	70 % control	70 % control	76 % control	32 % control	
1785588 (k[5mC]*kT*kT*dG[ms]dG[ms]dT[ms]dG*dA*dA[ms]dT[ms]d[5mC]*dT*dT*dT*dA*dT*kT*kA*dA[ms]kA; antisense) [Compound 1785588]	30 % control	29 % control	40 % control	18 % control	
1757573 (eA*e[5mC]eTeT*eG*eG*dT*dG[ms]dA[ms]dA[ms]dT*d[5mC]*dT*dT*dT*dA[ms]kT*eT*eA*eA; antisense) [Compound 1757573]	53 % control	38 % control	61 % control	42 % control	
1785591 (k[5mC]*kT*kT*dG[ms]dG[ms]dT[ms]dG*dA*dA*dT*d[5mC]*dT[ms]dT[ms]dT*dA*dT*kT*kA*dA[ms]kA; antisense) [Compound 1785591]	37 % control	39 % control	51 % control	42 % control	
1778109: 6-10-4 MOE gapmer ACTTGGTGAATCTTTATTAA, linkages sooossszzsssssszoss (eA*e[5mC]eTeTeG*eG*dT*dG[ms]dA[ms]dA*dT*d[5mC]*dT*dT*dT*dA[ms]eTeT*eA*eA) [compound 1778109]	59 % control	61 % control	81 % control	34 % control	
1779699 (e[5mC]*eTeT*kG*kG*eT*dG[ms]dA[ms]dA[ms]dT*d[5mC]*dT*dT*dT*dA[ms]dT*eT*eA*eA*eA; antisense) [Compound 1779699]	44 % control	54 % control	53 % control	25 % control	
1785589 (k[5mC]*kT*kT*dG[ms]dG[ms]dT[ms]dG*dA*dA*dT[ms]d[5mC][ms]dT*dT*dT*dA*dT*kT*kA*dA[ms]kA; antisense) [Compound 1785589]	32 % control	40 % control	49 % control	30 % control	
1778122 (eA*e[5mC]eTeTeG*eG*dT*dG[ms]dA[ms]dA*dT*d[5mC]*dT*dT*dT*dA[ms]kT*kT*eA*eA; antisense) [Compound 1778122]	53 % control	62 % control	76 % control	34 % control	
1766559 (eT*eTeGeGeT*dG[ms]dA[ms]dA[ms]dT*d[5mC]*dT*dT*dT[ms]dA[ms]dT*kTkAeA*eA*e[5mC]; antisense) [Compound 1766559]	79 % control	81 % control	100 % control	74 % control	APOE RNA (% UTC) (human APOE RNA [3]; 5 nM): 166 % UTC; APOE RNA (% UTC) (human APOE RNA [3]; 33 nM): 65 % UTC; APOE RNA (% UTC) (human APOE RNA [3]; 82 nM): 47 % UTC; APOE RNA (% UTC) (human APOE RNA [3]; 205 nM): 46 % UTC; APOE RNA (% UTC) (human APOE RNA [3]; 512 nM): 41 % UTC; APOE RNA (% UTC) (human APOE RNA [3]; 1,280 nM): 30 % UTC; APOE RNA (% UTC) (human APOE RNA [3]; 3,200 nM): 21 % UTC; APOE RNA (% UTC) (human APOE RNA [3]; 8,000 nM): 35 % UTC; APOE RNA (% UTC) (human APOE RNA [3]; 20,000 nM): 36 % UTC; IC50 (human APOE RNA [3]): 0.34 µM
1779961 (e[5mC]*eTeT*kG[ms]kG*eT*dG[ms]dA[ms]dA[ms]dT*d[5mC]*dT*dT*dT*dA[ms]dT*eT*eA*eA*eA; antisense) [Compound 1779961]	39 % control	53 % control	59 % control	26 % control	
1779706 (e[5mC]*eTeTkGkG*dT[ms]dG[ms]dA[ms]dA*dT*d[5mC]*dT*dT*dT*dA*dT*eT*eA*eA*eA; antisense) [Compound 1779706]	35 % control	53 % control	46 % control	36 % control	
1693144: 6-10-4 MOE gapmer ACTTGGTGAATCTTTATTAA, linkages soosssszzzssssszsss (eA*e[5mC]eTeT*eG*eG*dT*dG[ms]dA[ms]dA[ms]dT*d[5mC]*dT*dT*dT*dA[ms]eT*eT*eA*eA) [compound 1693144]			65 % control	71 % control	APOE RNA (% control) Cortex (human APOE RNA [4]): 113 % control and 61 % control; APOE RNA (% control) Cortex (human APOE RNA [5]; cortex): 67 % control; APOE RNA (% control) Spinal Cord (human APOE RNA [5]; spinal cord): 43 % control
1757567 (eA*e[5mC]eTeTeG*dG*dT*dG*dA*dA*dT*d[5mC]*dT*dT*dT*kAeTeT*eA*eA; antisense) [Compound 1757567]			80 % control	65 % control	APOE RNA (% UTC) (human APOE RNA [3]; 5 nM): 103 % UTC; APOE RNA (% UTC) (human APOE RNA [3]; 13 nM): 108 % UTC; APOE RNA (% UTC) (human APOE RNA [3]; 33 nM): 97 % UTC; APOE RNA (% UTC) (human APOE RNA [3]; 82 nM): 91 % UTC; APOE RNA (% UTC) (human APOE RNA [3]; 205 nM): 95 % UTC; APOE RNA (% UTC) (human APOE RNA [3]; 512 nM): 64 % UTC; APOE RNA (% UTC) (human APOE RNA [3]; 1,280 nM): 59 % UTC; APOE RNA (% UTC) (human APOE RNA [3]; 3,200 nM): 37 % UTC; APOE RNA (% UTC) (human APOE RNA [3]; 8,000 nM): 19 % UTC; APOE RNA (% UTC) (human APOE RNA [3]; 20,000 nM): 23 % UTC; IC50 (human APOE RNA [3]): 1.82 µM
1757541: mixed MOE/cEt gapmer TTGGTGAATCTTTATTAA, sugar eeeekddddddddeeeee, linkages soossssssssssooss (eT*eTeGeG*kT*dG*dA*dA*dT*d[5mC]*dT*dT*dT*eAeTeT*eA*eA) [compound 1757541]			88 % control	80 % control	APOE RNA (% UTC) (human APOE RNA [3]; 5 nM): 104 % UTC; APOE RNA (% UTC) (human APOE RNA [3]; 13 nM): 103 % UTC; APOE RNA (% UTC) (human APOE RNA [3]; 33 nM): 100 % UTC; APOE RNA (% UTC) (human APOE RNA [3]; 82 nM): 99 % UTC; APOE RNA (% UTC) (human APOE RNA [3]; 205 nM): 91 % UTC; APOE RNA (% UTC) (human APOE RNA [3]; 512 nM): 66 % UTC; APOE RNA (% UTC) (human APOE RNA [3]; 1,280 nM): 60 % UTC; APOE RNA (% UTC) (human APOE RNA [3]; 3,200 nM): 38 % UTC; APOE RNA (% UTC) (human APOE RNA [3]; 8,000 nM): 22 % UTC; APOE RNA (% UTC) (human APOE RNA [3]; 20,000 nM): 8 % UTC; IC50 (human APOE RNA [3]): 1.79 µM
